The values below come from PMC11407620, “Repurposing auranofin and meclofenamic acid as energy-metabolism inhibitors and anti-cancer drugs” (PLOS ONE, 2024).

One series deals with MDA-MB-468 cells. As to the kind of experiment: OxPhos flux (oligomycin-sensitive respiration) in intact cells. Type of series: cell-based, human. Particulars: +MA 50 μM, 24 h. As to the method:
For oxidative phosphorylation (OxPhos) flux, cells (2–5 mg protein/mL) were incubated at 37°C in air saturated KR medium plus 5 mM glucose. To distinguish the oxygen consumption associated to OxPhos, the cells were incubated with 5 μM oligomycin (Sigma-Aldrich, MO, USA), a potent, specific, and permeable inhibitor of the mitochondrial ATP synthase. The net OxPhos rate was determined by using a Clark type electrode, as previously described and by using a high-resolution respirometer (Oroboros Instruments, Innsbruck, Austria) at 37°C. The contribution of OxPhos and glycolysis to the cellular ATP supply was determined, respectively, from the net OxPhos rate (oligomycin-sensitive respiration) multiplied by the ATP/O or P»/O2 ratio that corresponds to 2.5 or 5, and from the rate of lactate production, assuming a stoichiometry of 1 mol of ATP produced per 1 mol of lactate produced.

A further series relates to Breast MDA-MB-468 cells. As to the kind of experiment: Cell proliferation, 24 h drug exposure. Type of series: cell-based, human. The protocol: (§1) All metastatic (breast MDA-MB231, MDA-MB468, cervix HeLa, prostate PC3, colorectal HCT116, COLO205, glioblastoma U373), low-metastatic (breast MCF-7) cancer and non-cancer (fibroblast 3T3, cardiomyocytes H9C2) cell lines (American Type Culture Collection, Rockville, MD, USA) used in this study were cultured in Petri dishes in 20 mL of Dulbecco’s Modified Eagle’s Medium (DMEM, Sigma, MO, USA) supplemented with 10% fetal bovine serum (Biowest, Mexico) and 10,000 U penicillin/streptomycin (Sigma-Aldrich, MO, USA). […] For growth and maintenance, cells were incubated in 5% CO2/95% air at 37°C and kept until 80–90% of confluence was reached. Then, cells were harvested, washed by centrifugation and resuspended in Krebs-Ringer buffer (KR, 125 mM NaCl, 5 mM KCl, 25 mM Hepes, 1 mM MgCl2, 1 mM KH2PO4, 1.4 mM CaCl2, pH 7.4) for further use. For experimentation, cancer cells (3–5 x 10^6 cells) were cultured in DMEM (with 25 mM glucose) for 24 h in the absence of drugs. Afterwards, old-medium was replaced with fresh DMEM medium (with 25 mM glucose) in the absence (control, non-treated cells) or in the presence of logarithmic concentrations of Aur and MA for 24 h more, under the same culture conditions described above. Viability of cultured cells was determined by the trypan blue exclusion assay. The protein concentration was determined by the Lowry method.
(§2) For cell proliferation in the presence of drugs, cancer cells (20 x 10^3 cells/well) were grown in 96-well plates containing DMEM (Sigma-Aldrich) plus 10% bovine fetal serum for 24 h. Afterwards, Aur or MA (0.01, 0.1, 10 and 100 μM) were added to the cell cultures and incubated for additional 24 h. The effect of these drugs on cell proliferation was determined in 96-well plates by the MTT (3-[4,5-dimethyl-thiazol-2-yl]-2,5-diphenyltetrazolium bromide) assay. The viability of cancer cells was > 95% after treatment with drugs.

A further series has as its system Colorectal COLO205 cells. As to the kind of experiment: Cell proliferation, 24 h drug exposure. The format is cell-based, human. The protocol: as §1, §2
Series [1] has as its system HeLa, MDA-MB-231 and MDA-MB-468 cells. The series can be described thus: Cell migration, wound healing assay. The conditions noted are these: Aur at IC50 (1.7, 0.8, 2 μM); 24 h. Type of series: cell-based, human. As to the method:
The wound healing assay was performed for cell migration detection. In petri dishes with full DMEM, cancer cells (5 x 10^6 cells/well) were cultured at 37°C under 95% air and 5% CO2 until 80–90% confluence was attained. Afterwards, cell culture was wounded with a 1 mL pipette tip, washed twice with PBS (155 mM NaCl, 1.5 mM KH2PO4, 2.7 mM NaH2PO4, pH 7.2) and subsequently incubated at 37°C with fresh non-serum DMEM. Cellular migration images were taken in an inverted microscope (Zeiss, Thornwood, NY, USA) after 0 and 24 h incubation time. Using a graduated reticule (Zeiss, Thornwood, NY, USA), cellular migration was assessed from the petri dish’s border to its center distance travelled.
The Aur concentration added was 1.7, 0.8 and 2 μM for HeLa, MDA-MB-231 and MDA-MB-468 cells, respectively. n = 3; *p < 0.05, **p<0.01 vs. Control (Non-treated cells).

On the set-up of series [2]: method as in PMID 27821451, PMID 6411921. The conditions noted are these: patients receiving oral Aur; after 24 h -7 d of treatment; cited from earlier work.
The test system of series [3] is HeLa, MDA-MB-231 and MDA-MB-468 cells. The series can be described thus: Cell invasiveness, Boyden chamber. The format is cell-based, human. Particulars: Aur at IC50 (1.7, 0.8, 2 μM); 24 h. The protocol: (§3) The 96-multiwell Boyden chambers (Merck Millipore, MA, USA) assay was performed for cellular invasiveness detection. Cancer cells (5 × 10^4 cells/well) were re-suspended in free-serum DMEM and placed in the upper Boyden chamber compartment. Free-serum DMEM was also placed in the lower compartment of the chamber. Afterwards, the Boyden chamber was placed at 37°C and 95% air/5% CO2 for 24 h. Invasive cancer cells within the lower chamber compartment were detected by using the calcein-AM (60 nM, 1 h) assay at 37°C. Calcein-fluorescence was measured at λexcitation = 485 nm and λemission = 520 nm in a Nunclon microplate reader (Roskilde, Denmark).
(§4) The Aur concentration added was 1.7, 0.8, 2 and 0.6 μM for HeLa, MDA-MB-231, MDA-MB-468 and U373 cells, respectively. n = 3; *p < 0.05, **p<0.01 vs. Control (Non-treated cells).

A further series has as its system U373 glioblastoma cells. The series can be described thus: Cell invasiveness, Boyden chamber. Type of series: cell-based, human. The conditions noted are these: 0.6 μM Aur, 24 h. As to the method:
as §3, §4

Another series has as its system GAPDH. Also noted: method as in PMID 36560881. Particulars: OVCAR-8 cells; Aur 2.5 μM/ 8 h; cited from earlier work.

Structures are written as SMILES. Several values for one entry are separate records, joined by “and”; a condition that tells them apart may be missing. Identical values can stand only once.

Regarding `Cc1ccc(Cl)c(Nc2ccccc2C(=O)O)c1Cl` [MA, Meclofenamic acid], in the series on MDA-MB-468 cells, the OxPhos flux is 4.8 ± 0.8 nmol O2 min^-1 mg protein^-1.

Consider `CC(=O)OC[C@H]1O[C@@H]([S-])[C@H](OC(C)=O)[C@@H](OC(C)=O)[C@@H]1OC(C)=O.CCP(CC)CC.[Au+]` [Aur, [1-(thio-κS)-β-D-glucopyranose-2,3,4,6-tetraacetyl] (triethylphosphine)-gold], for which the IC50 with Breast MDA-MB-468 cells (Breast MDA-MB-468, 24 h, read-out: IC50 for proliferation cell rate) came to 2 ± 1 µM; with Colorectal COLO205 cells (Colorectal COLO205, 24 h, read-out: IC50 for proliferation cell rate), 6 ± 2 µM. Besides, the “TI ratio (3T3/ cancer cells)” value is 21 in the series on Breast MDA-MB-468 cells (IC50 3T3 / IC50 MDA-MB-468) and 7 in the series with Colorectal COLO205 cells (IC50 3T3 / IC50 COLO 205). The “TI ratio (H9C2/cancer cells)” value is listed as 39 in the series on Breast MDA-MB-468 cells (IC50 H9C2 / IC50 MDA-MB-468) and 13 in the series on Colorectal COLO205 cells (IC50 H9C2 / IC50 COLO 205). In series [1], the inhibition of migration is on record as 90–95%. Moreover, the “blood Aur levels” value in series [2] was 49–310 ng/mL and 0.1–0.6 μM. The inhibition of invasiveness in series [3] is on record as 45–80%. In addition, the “inhibition of cell invasiveness” value in the series on U373 glioblastoma cells came out at 75%. Also, the “lower GAPDH activity vs. non-treated cells” value in the series on GAPDH is listed as 40%.
